According to patent US20140140988A1, “COMBINATION THERAPY OF AN AFUCOSYLATED CD20 ANTIBODY WITH A MDM2 INHIBITOR” (Roche Glycart AG, priority 2010, published 2014):

System: human Z138 mantle cell lymphoma cell line
Assay: Tumor growth inhibition study in vivo, Z138 mantle cell lymphoma xenograft
Design: species or system SCID beige mice
Description: Cells were co-injected with Matrigel.
Experimental study protocol was reviewed and approved by local government. […] Continuous health monitoring was carried out on regular basis. Diet food (Provimi Kliba 3337) and water (acidified pH 2.5-3) were provided ad libitum.
Animals were controlled daily for clinical symptoms and detection of adverse effects.
The corresponding vehicle was administered on the same days.

| Compound | tumor growth inhibition (day 35, single agent 75 mg/kg p.o. once daily, three times weekly over 18 days (FIG. 2)) [%] | tumor growth inhibition (day 35, single agent 150 mg/kg p.o. once daily, three times weekly over 18 days (FIG. 3)) [%] | tumor growth inhibition (day 35 after tumor cell inoculation, single agent 0.5 mg/kg i.p. q7d once weekly for 3 weeks, compared to the control group) [%] |
| --- | --- | --- | --- |
| CCOc1cc(C(C)(C)C)ccc1C1=N[C@@](C)(c2ccc(Cl)cc2)[C@@](C)(c2ccc(Cl)cc2)N1C(=O)N1CCN(CCCS(C)(=O)=O)CC1 [MDM2 inhibitor] | 35 | 78 |  |
| B-HH6-B-KV1 GE: afucosylated type II anti-CD20 antibody, humanized B-Ly1, glycoengineered; VH SEQ ID No.7, VL SEQ ID No. 20 |  |  | 59 |
